This note sets out measurements from US9738637B2, “Histone demethylase inhibitors” (Quanticel Pharmaceuticals, Inc., priority 2013, dated 2017).

A value given as a limit tells only on which side of the number the result lay.

Jarid1A, sequence (P29375 1-1090): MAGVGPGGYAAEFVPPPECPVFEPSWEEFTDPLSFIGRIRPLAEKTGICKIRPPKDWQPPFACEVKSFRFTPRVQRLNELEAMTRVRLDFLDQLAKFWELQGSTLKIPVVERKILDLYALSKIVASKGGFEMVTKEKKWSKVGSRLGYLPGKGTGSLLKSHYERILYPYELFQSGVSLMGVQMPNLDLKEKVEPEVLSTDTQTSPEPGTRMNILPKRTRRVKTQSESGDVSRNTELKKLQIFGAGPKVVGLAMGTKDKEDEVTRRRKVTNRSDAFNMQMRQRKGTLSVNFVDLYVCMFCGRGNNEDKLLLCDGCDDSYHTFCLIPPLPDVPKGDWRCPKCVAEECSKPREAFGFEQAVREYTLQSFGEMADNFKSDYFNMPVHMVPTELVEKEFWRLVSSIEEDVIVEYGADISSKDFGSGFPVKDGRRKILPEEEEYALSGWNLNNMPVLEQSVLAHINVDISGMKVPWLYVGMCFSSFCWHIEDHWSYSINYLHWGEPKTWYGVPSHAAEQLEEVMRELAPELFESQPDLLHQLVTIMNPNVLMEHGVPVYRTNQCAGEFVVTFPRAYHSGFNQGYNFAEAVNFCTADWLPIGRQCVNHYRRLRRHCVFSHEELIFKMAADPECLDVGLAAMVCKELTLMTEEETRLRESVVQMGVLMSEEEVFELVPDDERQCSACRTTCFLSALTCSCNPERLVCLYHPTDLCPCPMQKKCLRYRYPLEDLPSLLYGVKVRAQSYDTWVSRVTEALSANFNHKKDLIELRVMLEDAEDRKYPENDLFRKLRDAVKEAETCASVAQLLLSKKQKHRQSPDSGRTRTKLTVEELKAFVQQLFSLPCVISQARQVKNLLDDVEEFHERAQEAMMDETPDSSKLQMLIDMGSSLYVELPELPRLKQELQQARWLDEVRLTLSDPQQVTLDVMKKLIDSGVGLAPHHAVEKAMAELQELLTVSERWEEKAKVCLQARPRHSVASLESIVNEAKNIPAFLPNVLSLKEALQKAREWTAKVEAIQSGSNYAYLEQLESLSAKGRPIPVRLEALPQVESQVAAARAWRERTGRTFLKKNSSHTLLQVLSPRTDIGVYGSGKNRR
JMJD2A, sequence (O75164 1-350): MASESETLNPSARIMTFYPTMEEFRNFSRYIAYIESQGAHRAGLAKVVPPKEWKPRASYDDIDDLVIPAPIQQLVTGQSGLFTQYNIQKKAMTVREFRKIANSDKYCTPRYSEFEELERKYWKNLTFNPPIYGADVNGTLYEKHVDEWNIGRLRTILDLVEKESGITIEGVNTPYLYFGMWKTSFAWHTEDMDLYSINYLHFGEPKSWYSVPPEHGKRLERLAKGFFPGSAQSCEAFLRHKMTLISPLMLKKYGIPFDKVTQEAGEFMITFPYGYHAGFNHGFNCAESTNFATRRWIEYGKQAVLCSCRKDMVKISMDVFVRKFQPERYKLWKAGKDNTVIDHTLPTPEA

In the first assay the target is JMJD2A (Homo sapiens (Human), UniProt O75164). Briefly: JMJD2A in vitro enzyme inhibition assay (TR-FRET). It counts as biochemical. The conditions noted are these: H3K9me3-biotin peptide. The method, then:
This assay determines the ability of a test compound to inhibit Jarid1A, Jarid1B, JMJD2C, and JMJD2A demethylase activity.
Reaction product was determined quantitatively by TR-FRET after the addition of detection reagent Phycolink Streptavidin-allophycocyanin (Prozyme) and Europium-anti-di-methylated histone H3 lysine 9 (H3K9me2) antibody (PerkinElmer) in the presence of 5 mM EDTA in LANCE detection buffer (PerkinElmer) at a final concentration of 50 nM and 1 nM, respectively.
The assay reaction was initiated by the following: 2 μl of the mixture of 900 nM H3K9me3-biotin labeled peptide and 6 μM alpha-ketoglutaric acid with 2 μl of 11-point serial diluted inhibitor in 3% DMSO were added to each well of plate, followed by the addition of 2 μl of 6 nM JMJD2A to initiate the reaction. The reaction mixture was incubated at room temperature for 30 minutes, and terminated by the addition of 6 μl of 5 mM EDTA in LANCE detection buffer containing 100 nM Phycolink Streptavidin-allophycocyanin and 2 nM Europium-anti-H3K9me2 antibody.
The ability of the compounds disclosed herein to inhibit demethylase activity was quantified and the respective IC50 value was determined.
The IC50 is the concentration that inhibits the measured activity by half. `O=C(O)c1ccnc2cc(C(O)C3CCOCC3)[nH]c12` (racemic) [Example 43, (±)-2-[hydroxy(oxan-4-yl)methyl]-1H-pyrrolo[3,2-b]pyridine-7-carboxylic acid] had an IC50 of 100 to 1000 nM.

In the case of `O=C(O)c1ccnc2cc(C(=O)N3CCCC3)[nH]c12` [Example 99, 2-(pyrrolidin-1-ylcarbonyl)-1H-pyrrolo[3,2-b]pyridine-7-carboxylic acid], the 50% inhibitory concentration (IC50) is below 100 nM.

`Cc1cc(Cc2cc3nccc(C(=O)O)c3[nH]2)ccc1Cl` [Example 134, 2-(4-chloro-3-methylbenzyl)-1H-pyrrolo[3,2-b]pyridine-7-carboxylic acid] returned a concentration for half-maximal inhibition (IC50) of 100 to 1000 nM.

Molecule `O=C(O)c1ccnc2cc(Cc3cc(F)c(Cl)c(Cl)c3)[nH]c12` [Example 132, 2-(3,4-dichloro-5-fluorobenzyl)-1H-pyrrolo[3,2-b]pyridine-7-carboxylic acid] came in with a half-maximal inhibitory concentration (IC50) of 100 to 1000 nM.

Turning to `O=C(O)c1ccnc2cc(-c3ccccc3)[nH]c12` [Example 2, 2-phenyl-1H-pyrrolo[3,2-b]pyridine-7-carboxylic acid], the IC50 is 100 to 1000 nM.

Take `O=C(O)c1ccnc2cc(Cc3ccc(Cl)c(C(F)(F)F)c3)[nH]c12` [Example 136, 2-[4-chloro-3-(trifluoromethyl)benzyl]-1H-pyrrolo[3,2-b]pyridine-7-carboxylic acid]: the IC50 was in the range of 100 to 1000 nM.

Another assay deals with JMJD2C (Homo sapiens (Human), UniProt Q9H3R0). Briefly: JMJD2C in vitro enzyme inhibition assay (TR-FRET). The assay is classed as biochemical. The conditions noted are these: TR-FRET, H3K9me3-biotin peptide; read-out: IC50 JNJD2C. In general terms: TR-FRET usually uses a lanthanide donor and a delayed reading to cut background.
JMJD2C, sequence (Q9H3R0 2-372): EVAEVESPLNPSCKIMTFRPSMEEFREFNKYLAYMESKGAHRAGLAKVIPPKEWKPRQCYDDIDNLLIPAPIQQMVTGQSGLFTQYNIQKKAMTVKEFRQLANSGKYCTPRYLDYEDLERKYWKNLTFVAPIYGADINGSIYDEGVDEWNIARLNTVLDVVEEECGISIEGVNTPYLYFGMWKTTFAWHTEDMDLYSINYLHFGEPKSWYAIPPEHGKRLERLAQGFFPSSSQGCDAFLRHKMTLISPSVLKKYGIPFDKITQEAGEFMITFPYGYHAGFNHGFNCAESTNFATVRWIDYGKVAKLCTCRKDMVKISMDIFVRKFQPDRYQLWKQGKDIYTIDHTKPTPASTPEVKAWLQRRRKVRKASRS
For the molecule `O=C(O)c1ccnc2cc(C(O)C3CCOCC3)[nH]c12` (racemic) [Example 43, (±)-2-[hydroxy(oxan-4-yl)methyl]-1H-pyrrolo[3,2-b]pyridine-7-carboxylic acid], the half-inhibitory concentration (IC50) was 100 to 1000 nM.

For the molecule `O=C(O)c1ccnc2cc(C(=O)N3CCCC3)[nH]c12` [Example 99, 2-(pyrrolidin-1-ylcarbonyl)-1H-pyrrolo[3,2-b]pyridine-7-carboxylic acid], the IC50 was below 100 nM.

For `Cc1cc(Cc2cc3nccc(C(=O)O)c3[nH]2)ccc1Cl` [Example 134, 2-(4-chloro-3-methylbenzyl)-1H-pyrrolo[3,2-b]pyridine-7-carboxylic acid], the IC50 is below 100 nM.

Regarding `O=C(O)c1ccnc2cc(Cc3cc(F)c(Cl)c(Cl)c3)[nH]c12` [Example 132, 2-(3,4-dichloro-5-fluorobenzyl)-1H-pyrrolo[3,2-b]pyridine-7-carboxylic acid], the IC50 fell in the range of 100 to 1000 nM.

Regarding `Cn1nccc1C(O)c1cc2nccc(C(=O)O)c2[nH]1` (racemic) [Example 48, (±)-2-[hydroxy-(2-methylpyrazol-3-yl)methyl]-1H-pyrrolo[3,2-b]pyridine-7-carboxylic acid], the IC50 was below 100 nM.

Take `CC(O)(c1ccccc1)c1cc2nccc(C(=O)O)c2[nH]1` (racemic) [Example 46, (±)-2-(1-hydroxy-1-phenylethyl)-1H-pyrrolo[3,2-b]pyridine-7-carboxylic acid]: the 50% inhibitory concentration (IC50) was in the range of 100 to 1000 nM.

On to `O=C(O)c1ccnc2cc(-c3ccccc3)[nH]c12` [Example 2, 2-phenyl-1H-pyrrolo[3,2-b]pyridine-7-carboxylic acid], for which the IC50 lay in the range of 100 to 1000 nM.

Turning to `O=C(O)c1ccnc2cc(Cc3ccc(Cl)c(C(F)(F)F)c3)[nH]c12` [Example 136, 2-[4-chloro-3-(trifluoromethyl)benzyl]-1H-pyrrolo[3,2-b]pyridine-7-carboxylic acid], the half-inhibitory concentration (IC50) was below 100 nM.

As for `COC(=O)c1ccnc2cc(Cc3ccccc3)[nH]c12` [Example 6, methyl 2-benzyl-1H-pyrrolo[3,2-b]pyridine-7-carboxylate], the IC50 is above 10000 nM.

In another assay the target is Jarid1B (Homo sapiens (Human), UniProt Q9UGL1). Briefly: Jarid1B in vitro enzyme inhibition assay (TR-FRET). It counts as biochemical. The settings on record: TR-FRET, H3K4me3-biotin peptide; read-out: IC50 Jarid1B.
Jarid1B, sequence (Q9UGL1 2-751): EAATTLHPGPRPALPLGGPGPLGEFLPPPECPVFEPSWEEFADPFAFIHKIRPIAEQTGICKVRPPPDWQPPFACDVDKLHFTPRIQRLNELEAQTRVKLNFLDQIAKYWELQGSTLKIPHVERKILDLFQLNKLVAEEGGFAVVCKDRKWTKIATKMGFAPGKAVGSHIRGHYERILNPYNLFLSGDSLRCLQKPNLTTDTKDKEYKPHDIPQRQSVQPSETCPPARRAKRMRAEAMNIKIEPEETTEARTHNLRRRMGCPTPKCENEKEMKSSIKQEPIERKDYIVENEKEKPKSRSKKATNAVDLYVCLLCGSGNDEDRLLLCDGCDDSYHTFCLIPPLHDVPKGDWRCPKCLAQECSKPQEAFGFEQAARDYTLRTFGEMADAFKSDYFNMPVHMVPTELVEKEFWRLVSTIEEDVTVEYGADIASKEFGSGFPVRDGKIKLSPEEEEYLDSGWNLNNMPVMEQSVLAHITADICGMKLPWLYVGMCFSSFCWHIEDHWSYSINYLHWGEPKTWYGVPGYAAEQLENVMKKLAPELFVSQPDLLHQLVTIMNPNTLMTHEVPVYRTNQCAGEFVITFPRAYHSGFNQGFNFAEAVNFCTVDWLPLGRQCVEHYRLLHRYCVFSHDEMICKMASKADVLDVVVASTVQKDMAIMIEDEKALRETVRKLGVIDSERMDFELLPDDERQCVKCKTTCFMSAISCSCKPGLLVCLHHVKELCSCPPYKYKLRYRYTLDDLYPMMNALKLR
Take `O=C(O)c1ccnc2cc(C(O)C3CCOCC3)[nH]c12` (racemic) [Example 43, (±)-2-[hydroxy(oxan-4-yl)methyl]-1H-pyrrolo[3,2-b]pyridine-7-carboxylic acid]: the IC50 is below 100 nM.

For the molecule `O=C(O)c1ccnc2cc(C(=O)N3CCCC3)[nH]c12` [Example 99, 2-(pyrrolidin-1-ylcarbonyl)-1H-pyrrolo[3,2-b]pyridine-7-carboxylic acid], the IC50 is below 100 nM.

For `Cc1cc(Cc2cc3nccc(C(=O)O)c3[nH]2)ccc1Cl` [Example 134, 2-(4-chloro-3-methylbenzyl)-1H-pyrrolo[3,2-b]pyridine-7-carboxylic acid], the IC50 was in the range of 100 to 1000 nM.

For `O=C(O)c1ccnc2cc(Cc3cc(F)c(Cl)c(Cl)c3)[nH]c12` [Example 132, 2-(3,4-dichloro-5-fluorobenzyl)-1H-pyrrolo[3,2-b]pyridine-7-carboxylic acid], the half-inhibitory concentration (IC50) was in the range of 1000 to 10000 nM.

As to `Cn1nccc1C(O)c1cc2nccc(C(=O)O)c2[nH]1` (racemic) [Example 48, (±)-2-[hydroxy-(2-methylpyrazol-3-yl)methyl]-1H-pyrrolo[3,2-b]pyridine-7-carboxylic acid], the half-maximal inhibitory concentration (IC50) was below 100 nM.

Turning to `CC(O)(c1ccccc1)c1cc2nccc(C(=O)O)c2[nH]1` (racemic) [Example 46, (±)-2-(1-hydroxy-1-phenylethyl)-1H-pyrrolo[3,2-b]pyridine-7-carboxylic acid], the IC50 is 100 to 1000 nM.

As to `O=C(O)c1ccnc2cc(-c3ccccc3)[nH]c12` [Example 2, 2-phenyl-1H-pyrrolo[3,2-b]pyridine-7-carboxylic acid], the concentration for half-maximal inhibition (IC50) was 100 to 1000 nM.

As for `O=C(O)c1ccnc2cc(Cc3ccc(Cl)c(C(F)(F)F)c3)[nH]c12` [Example 136, 2-[4-chloro-3-(trifluoromethyl)benzyl]-1H-pyrrolo[3,2-b]pyridine-7-carboxylic acid], the IC50 is 1000 to 10000 nM.

With `COC(=O)c1ccnc2cc(Cc3ccccc3)[nH]c12` [Example 6, methyl 2-benzyl-1H-pyrrolo[3,2-b]pyridine-7-carboxylate], the IC50 was above 10000 nM.

The subject of a further assay is KDM5A and KDM5B. Briefly: In vitro cell-based assay, ZR-75-1 cell line: tri-methyl H3K4 immuno-blotting (cellular inhibition of KDM5A/B). The settings on record: ZR-75-1 breast cancer cells, 72 hours, read-out: IC50 ZR-75-1 cell-MOA. An excerpt: This quantitative immuno-blotting assay measures the amount tri-methylated histone H3 at amino acid Lysine number 4, a specific substrate […] of the direct enzymatic activity of the histone demethylases KDM5A and KDM5B from extracts of the ZR-75-1 breast cancer cell line.
This assay is a fluorometric immunoassay for the quantification of tri-methyl H3K4 extracted from cells treated with test compound and is used as a measure of the cellular inhibition of KDM5A/B.
Cells were left in the presence of test compound for 72 hours. Extracts were prepared containing all of the cellular histone material using detergent based lysis and sonication methods. These lysates were subsequently normalized for total protein content using a colorimetric bicinchonic acid assay (MicroBCA Pierce/Thermo Scientific). Normalized cell extracts were then subjected to typical immuno-blotting procedures using NuPage reagents (Life Technologies). Electrophoretically separated histones were then transferred and immobilized using polyvinylidene difluoride membrane (Immobilon-FL Millipore). The amount of tri-methylated lysine 4 of histone H3 was detected using an antibody specific to the tri-methylated state (Cell Signaling Technologies) and quantified on an infrared imager using a densitometry software package (Odyssey CLx, Image Studio, Li-Cor). This background subtracted densitometry value was reported as a ration of the GAPDH amount for that sample and then calculated as a percent of the DMSO treated sample. The software package XL-fit (IDBS) was then used to calculate a relative IC50 value for the dilution series of a given test compound according to the equation: fit=(D+((Vmax*(x^n))/((x^n)+(Km^n)))).
Turning to `Cn1nccc1C(O)c1cc2nccc(C(=O)O)c2[nH]1` (racemic) [Example 48, (±)-2-[hydroxy-(2-methylpyrazol-3-yl)methyl]-1H-pyrrolo[3,2-b]pyridine-7-carboxylic acid], the 50% inhibitory concentration (IC50) was above 10000 nM.

With `CC(O)(c1ccccc1)c1cc2nccc(C(=O)O)c2[nH]1` (racemic) [Example 46, (±)-2-(1-hydroxy-1-phenylethyl)-1H-pyrrolo[3,2-b]pyridine-7-carboxylic acid], the half-maximal inhibitory concentration (IC50) was above 10000 nM.

Turning to `COC(=O)c1ccnc2cc(Cc3ccccc3)[nH]c12` [Example 6, methyl 2-benzyl-1H-pyrrolo[3,2-b]pyridine-7-carboxylate], the half-maximal inhibitory concentration (IC50) is above 10000 nM.

The next assay addresses Jarid1A (Homo sapiens (Human), UniProt P29375). Briefly: Jarid1A in vitro enzyme inhibition assay (TR-FRET). The conditions noted are these: H3K4me3-biotin peptide. The assay is classed as biochemical.
For the molecule `O=C(O)c1ccnc2cc(C(O)C3CCOCC3)[nH]c12` (racemic) [Example 43, (±)-2-[hydroxy(oxan-4-yl)methyl]-1H-pyrrolo[3,2-b]pyridine-7-carboxylic acid], the IC50 was below 100 nM.

Molecule `O=C(O)c1ccnc2cc(C(=O)N3CCCC3)[nH]c12` [Example 99, 2-(pyrrolidin-1-ylcarbonyl)-1H-pyrrolo[3,2-b]pyridine-7-carboxylic acid] came in with a 50% inhibitory concentration (IC50) below 100 nM.

`Cc1cc(Cc2cc3nccc(C(=O)O)c3[nH]2)ccc1Cl` [Example 134, 2-(4-chloro-3-methylbenzyl)-1H-pyrrolo[3,2-b]pyridine-7-carboxylic acid] had an IC50 of 1000 to 10000 nM.

Consider `O=C(O)c1ccnc2cc(Cc3cc(F)c(Cl)c(Cl)c3)[nH]c12` [Example 132, 2-(3,4-dichloro-5-fluorobenzyl)-1H-pyrrolo[3,2-b]pyridine-7-carboxylic acid], for which the IC50 was 1000 to 10000 nM.

Consider `Cn1nccc1C(O)c1cc2nccc(C(=O)O)c2[nH]1` (racemic) [Example 48, (±)-2-[hydroxy-(2-methylpyrazol-3-yl)methyl]-1H-pyrrolo[3,2-b]pyridine-7-carboxylic acid], for which the half-maximal inhibitory concentration (IC50) is below 100 nM.

For `CC(O)(c1ccccc1)c1cc2nccc(C(=O)O)c2[nH]1` (racemic) [Example 46, (±)-2-(1-hydroxy-1-phenylethyl)-1H-pyrrolo[3,2-b]pyridine-7-carboxylic acid], the concentration for half-maximal inhibition (IC50) was below 100 nM.

The molecule `O=C(O)c1ccnc2cc(-c3ccccc3)[nH]c12` [Example 2, 2-phenyl-1H-pyrrolo[3,2-b]pyridine-7-carboxylic acid] gave an IC50 of 100 to 1000 nM.

`O=C(O)c1ccnc2cc(Cc3ccc(Cl)c(C(F)(F)F)c3)[nH]c12` [Example 136, 2-[4-chloro-3-(trifluoromethyl)benzyl]-1H-pyrrolo[3,2-b]pyridine-7-carboxylic acid]: the IC50 is 1000 to 10000 nM.

`COC(=O)c1ccnc2cc(Cc3ccccc3)[nH]c12` [Example 6, methyl 2-benzyl-1H-pyrrolo[3,2-b]pyridine-7-carboxylate] registered an IC50 above 10000 nM.
